pIC50, pKd: −log10 of the molar value.

For one test, the target named is T1, TYK2 JH2 (Homo sapiens, UniProt P29597).
T1 construct: purchased DiscoverX (KINOMEscan KdELECT service); host or cells: E. coli BL21-derived (T7 phage display) or HEK-293
The experiment in a line: TYK2 JH2 binding assay (KINOMEscan KdELECT competitive binding). To be noted: TYK2 JH2 domain, KINOMEscan KdELECT (Assay A); read-out: Biochemical TYK2_DiscoverX_JH2_BND_Kd. The essentials: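 Test compounds were titrated in 11 three-fold steps against JH2 fragment captured on ligand-loaded magnetic beads, with 1 h incubation at room temperature and DMSO at 0.9%. Eluted kinase was quantified by qPCR, and Kd was fitted from the dose series.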

Test [1] deals with JAK1/TYK2 pSTAT5 (Tyr694/699) in THP-1 cell line. Description: IFNa-stimulated JAK1/TYK2 pSTAT5 (Tyr694/699) inhibition cellular assay, AlphaLISA. As to conditions: Homo sapiens; THP-1 cells, IFNa-stimulated pSTAT5 (Tyr694/699), AlphaLISA (Assay B); read-out: Cellular_THP1_IFNa-pSTATS_TYK2. In kind it is cell-based. A digest of the protocol: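 THP-1 cells (2e4/well in HBSS) were preincubated with compound (8 points, 6-fold steps from 10000 nM final) for 1 h at 37 °C, then stimulated with IFNa (added at 100 ng/mL) for 30 min. Lysate pSTAT5 was read by AlphaLISA at 615 nm. IC50 came from a 4-parameter fit with bottom 0 and Hill −1.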
In general terms: Alpha assays give light when donor and acceptor beads are brought close together.

T1 sequence (P29597 589-875 limits assumed): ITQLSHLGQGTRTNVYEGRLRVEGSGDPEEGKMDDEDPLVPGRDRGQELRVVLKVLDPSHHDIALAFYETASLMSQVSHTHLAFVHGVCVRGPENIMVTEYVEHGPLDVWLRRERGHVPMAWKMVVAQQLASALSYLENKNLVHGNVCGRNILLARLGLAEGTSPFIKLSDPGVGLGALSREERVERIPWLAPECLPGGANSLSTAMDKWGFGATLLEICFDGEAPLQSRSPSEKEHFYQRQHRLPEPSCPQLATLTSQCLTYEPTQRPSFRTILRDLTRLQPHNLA

With `CNc1ncc(C#Cc2ccc(N3CCN(C)C3=O)cc2)c2cc(NC(=O)C3CC3)ncc12` [Example 1000, N-(5-((4-(3-methyl-2-oxoimidazolidin-1-yl)phenyl)ethynyl)-8-(methylamino)-2,7-naphthyridin-3-yl)cyclopropanecarboxamide], the pKd on TYK2 JH2 is no less than 7.00. For the same compound, the pIC50 in test [1] was no less than 6.30.
Regarding `CNc1ncc(C#Cc2ccc(-n3c(=O)ccn3C)cn2)c2cc(NC(=O)C3CC3)ncc12` [Example 1001, N-(5-((5-(2-methyl-5-oxo-2,5-dihydro-1H-pyrazol-1-yl)pyridine-2-yl)ethynyl)-8-(methylamino)-2,7-nahphthyridin-3-yl)cyclopropanecarboxamide], at TYK2 JH2, the pKd was no less than 7.00. Besides, the pIC50 in test [1] is no less than 6.30.
For `CN=S(C)(=O)c1ccc(C#Cc2cnc(NC)c3cnc(NC(=O)C4CC4)cc23)cc1` (stereo not shown) [Example 1002, N-(5-((4-(N,S-dimethylsulfonimidoyl)phenyl)ethynyl)-8-(methylamino)-2,7-naphthyridin-3-yl)cyclopropanecarobxamide], the pKd at TYK2 JH2 was no less than 7.00. Also, the pIC50 in test [1] is no less than 6.30.
With `CNc1ncc(C#Cc2cn(C)c(C)n2)c2cc(NC(=O)C3CC3)ncc12` [Example 1003, N-(5-((1,2-dimethyl-1H-imidazol-4-yl)ethynyl)-8-(methylamino)-2,7-naphthyridin-3-yl)cyclopropanecarboxamide], the pKd at TYK2 JH2 was no less than 7.00. Besides, the pIC50 in test [1] is no less than 6.30.
Turning to `CNc1ncc(C#Cc2cnc(C)n2C)c2cc(NC(=O)C3CC3)ncc12` [Example 1004, N-(5-((1,2-dimethyl-1H-imidazol-5-yl)ethynyl)-8-(methylamino)-2,7-naphthyridin-3-yl)cyclopropanecarboxamide], the pKd on TYK2 JH2 is no less than 7.00. In addition, the pIC50 in test [1] was no less than 6.30.
In the case of `CNc1ncc(C#Cc2ccc3c(c2)OC(C)CO3)c2cc(NC(=O)C3CC3)ncc12` (stereo not shown) [Example 1005, N-(5-((3-methyl-2,3-dihydrobenzo[b][1,4]dioxin-6-yl)ethynyl)-8-(methylamino)-2,7-naphthyridin-3-yl)cyclopropanecarboxamide], the pKd on TYK2 JH2 was no less than 7.00. Also, in test [1], the pIC50 is no less than 6.30.
On to `CNc1ncc(C#Cc2cn(C(F)F)c(C)n2)c2cc(NC(=O)C3CC3)ncc12` [Example 1006, N-(5-((1-(difluoromethyl)-2-methyl-1H-imidazol-4-yl)ethynyl)-8-(methylamino)-2,7-naphthyridin-3-yl)cyclopropanecarboxamide], for which the pKd on TYK2 JH2 is no less than 7.00. The pIC50 in test [1] is no less than 6.30.
For `CNc1ncc(C#Cc2cn(C)nn2)c2cc(NC(=O)C3CC3)ncc12` [Example 1007, N-[8-(methylamino)-5-[2-(1-methyltriazol-4-yl)ethynyl]-2,7-naphthyridin-3-yl]cyclopropanecarboxamide] the same measures were no less than 7.00 and no less than 6.30.
On to `CNc1ncc(C#Cc2cn(C)cn2)c2cc(NC(=O)[C@H]3C[C@H]3C)ncc12` [Example 1008, (1S,2R)-2-methyl-N-(5-((1-methyl-1H-imidazol-4-yl)ethynyl)-8-(methylamino)-2,7-naphthyridin-3-yl)cyclopropane-1-carboxamide], for which the pKd at TYK2 JH2 was no less than 7.00. Also, the pIC50 in test [1] is no less than 6.30.
Regarding `CNc1ncc(C#Cc2cn(C)nn2)c2cc(NC(=O)[C@H]3C[C@H]3C)ncc12` [Example 1009], the pKd at TYK2 JH2 is no less than 7.00. Besides, the pIC50 in test [1] was no less than 6.30.
Turning to `CNc1ncc(C#Cc2cn(C)c(C)n2)c2cc(NC(=O)[C@H]3C[C@H]3C)ncc12` [Example 1010, (1S,2R)-N-(5-((1,2-dimethyl-1H-imidazol-4-y)ethynyl)-8-(methylamino)-2,7-naphthyridin-3-yl)-2-methylcyclopropane-1-carboxamide], the pKd at TYK2 JH2 was no less than 7.00. For the same compound, in test [1], the pIC50 is no less than 6.30.
As to `CNc1ncc(C#Cc2cnc(C)n2C)c2cc(NC(=O)[C@H]3C[C@H]3C)ncc12` [Example 1011], the pKd at TYK2 JH2 is no less than 7.00. The pIC50 in test [1] is no less than 6.30.
As to `CNc1ncc(C#Cc2nccc3cc(C)sc23)c2cc(NC(=O)C3CC3)ncc12` [Example 1012, N-(8-(methylamino)-5-((2-methylthieno[2,3-c]pyridin-7-yl)ethynyl)-2,7-naphthyridin-3-yl)cyclopropanecarboxamide], on TYK2 JH2, the pKd is no less than 7.00. For the same compound, in test [1], the pIC50 was no less than 6.30.
In the same order, the values of `CNc1ncc(C#Cc2ccc3c(c2)CCC3=O)c2cc(NC(=O)C3CC3)ncc12` [Example 1013, N-(8-(methylamino)-5-((1-oxo-2,3-dihydro-1H-inden-5-yl)ethynyl)-2,7-naphthyridin-3-yl)cyclopropanecarboxamide] are no less than 7.00 and no less than 6.30.
Regarding `CNc1ncc(C#Cc2cccc3c2OCCC3)c2cc(NC(=O)C3CC3)ncc12` [Example 1014, N-(5-(chroman-8-ylethynyl)-8-(methylamino)-2,7-naphthyridin-3-yl)cyclopropanecarboxamide], the pKd on TYK2 JH2 was no less than 7.00. In addition, the pIC50 in test [1] was no less than 6.30.
For `CNc1ncc(C#Cc2ccc3[nH]ccc3c2)c2cc(NC(=O)C3CC3)ncc12` [Example 1015, N-(5-((1H-indol-5-yl)ethynyl)-8-(methylamino)-2,7-naphthyridin-3-yl)cyclopropanecarboxamide] the same measures were no less than 7.00 and no less than 6.30.
In the same order, the values of `CNc1ncc(C#Cc2nccc3ncsc23)c2cc(NC(=O)C3CC3)ncc12` [Example 1016, N-(8-(methylamino)-5-(thiazolo[5,4-c]pyridin-4-ylethynyl)-2,7-naphthyridin-3-yl)cyclopropanecarboxamide] are no less than 7.00 and no less than 6.30.
As for `CNc1ncc(C#Cc2ccc3c(c2)C(=O)N(C)C3)c2cc(NC(=O)C3CC3)ncc12` [Example 1017, N-(5-((2-methyl-3-oxoisoindolin-5-yl)ethynyl)-8-(methylamino)-2,7-naphthyridin-3-yl)cyclopropanecarboxamide], the pKd at TYK2 JH2 is no less than 7.00. The pIC50 in test [1] was no less than 6.30.
As to `CNc1ncc(C#Cc2c(C)nn(C)c2C)c2cc(NC(=O)C3CC3)ncc12` [Example 1018, N-(8-(methylamino)-5-((1,3,5-trimethyl-1H-pyrazol-4-yl)ethynyl)-2,7-naphthyridin-3-yl)cyclopropanecarboxamide], at TYK2 JH2, the pKd was no less than 7.00. Besides, in test [1], the pIC50 is no less than 6.30.
In the same order, the values of `CNc1ncc(C#Cc2cccc3c2CCCC3=O)c2cc(NC(=O)C3CC3)ncc12` [Example 1019, N-(8-(methylamino)-5-((5-oxo-5,6,7,8-tetrahydronaphthalen-1-yl)ethynyl)-2,7-naphthyridin-3-yl)cyclopropanecarboxamide] are no less than 7.00 and no less than 6.30.
`CNc1ncc(C#Cc2nc3ccccc3s2)c2cc(NC(=O)C3CC3)ncc12` [Example 1020, N-(5-(benzo[d]thiazol-2-ylethynyl)-8-(methylamino)-2,7-naphthyridin-3-yl)cyclopropanecarboxamide]: at TYK2 JH2, the pKd was no less than 7.00. The pIC50 in test [1] is no less than 6.30.
For `CNc1ncc(C#Cc2cnn3cccnc23)c2cc(NC(=O)C3CC3)ncc12` [Example 1021, N-(8-(methylamino)-5-(pyrazolo[1,5-a]pyrimidin-3-ylethynyl)-2,7-naphthyridin-3-yl)cyclopropanecarboxamide], the pKd at TYK2 JH2 was no less than 7.00. The pIC50 in test [1] was no less than 6.30.
Consider `CNc1ncc(-c2nc3ccc(N4CCOC(COC)C4)cn3n2)c2cc(NC(=O)C3CC3)ncc12` (stereo not shown) [Example 1022, N-(5-(6-(2-(methoxymethyl)morpholino)-[1,2,4]triazolo[1,5-a]pyridin-2-yl)-8-(methylamino)-2,7-naphthyridin-3-yl)cyclopropanecarboxamide], for which, on TYK2 JH2, the pKd is no less than 7.00. Besides, the pIC50 in test [1] is no less than 6.30.
For the compound `CNc1ncc(-c2cn3ccc(OC)cc3n2)c2cc(NC(=O)C3CC3)ncc12` [Example 1025], the pKd at TYK2 JH2 is no less than 7.00. Besides, the pIC50 in test [1] was less than 6.30.
For `CNc1ncc(-c2nc3ccc(N4CCOC(C(C)(C)O)C4)cn3n2)c2cc(NC(=O)C3CC3)ncc12` (stereo not shown) [Example 1026], on TYK2 JH2, the pKd is no less than 7.00. Further, the pIC50 in test [1] was no less than 6.30.
In the case of `CNc1ncc(-c2nc3ccc(N4CCO[C@@H](C(C)(C)O)C4)cn3n2)c2cc(NC(=O)C3CC3)ncc12` [Example 1027], on TYK2 JH2, the pKd is no less than 7.00. Moreover, the pIC50 in test [1] was no less than 6.30.
For `CNc1ncc(-c2nc3ccc(N4CCO[C@H](C(C)(C)O)C4)cn3n2)c2cc(NC(=O)C3CC3)ncc12` [Example 1028] the same measures were no less than 7.00 and no less than 6.30.
As to `CNc1ncc(-c2nc3ccc(N4CCOC(CO)C4)cn3n2)c2cc(NC(=O)C3CC3)ncc12` (stereo not shown) [Example 1029], the pKd at TYK2 JH2 was no less than 7.00. Moreover, the pIC50 in test [1] is no less than 6.30.
Take `CNc1ncc(-c2nc3ccc(N4CCO[C@@H](CO)C4)cn3n2)c2cc(NC(=O)C3CC3)ncc12` [Example 1030]: on TYK2 JH2, the pKd is no less than 7.00. Besides, in test [1], the pIC50 was no less than 6.30.
Consider `CNc1ncc(-c2nc3ccc(N4CCO[C@H](CO)C4)cn3n2)c2cc(NC(=O)C3CC3)ncc12` [Example 1031], for which the pKd on TYK2 JH2 was no less than 7.00. Further, the pIC50 in test [1] was no less than 6.30.
Turning to `CNc1ncc(-c2nc3ccc(N4CCO[C@@H](C(C)(C)OC)C4)cn3n2)c2cc(NC(=O)C3CC3)ncc12` [Example 1032], on TYK2 JH2, the pKd is no less than 7.00. The pIC50 in test [1] is no less than 6.30.
For `CNc1ncc(-c2nc3ccc(N4CCO[C@H](C(C)(C)OC)C4)cn3n2)c2cc(NC(=O)C3CC3)ncc12` [Example 1033] the same measures were no less than 7.00 and no less than 6.30.

Source of the values: patent US20240025906A1 (NEURON23, INC., priority 2022, published 2024).
